One block for each molecule: values may come before it. Residues, ends and D or L forms follow the SMILES beside them.
Tests used:
MAP1LC3A [1] = molecular target: T1, MAP1LC3A (Homo sapiens, UniProt Q9H492); test: Phosphomimetic ProP-PD selection, MAP1LC3A; settings: phosphomimetic enrichment score of the wild-type/phosphomimetic (E) pair at the phosphosite, PM_HD2 phage selection; positive = phosphomimetic enhances binding; P-value in brackets not taken
T1 construct: GST (cleaved yes); made in house; host or cells: Escherichia coli BL21-Gold(DE3)
Procedure: (§1) Selections using the PM_HD2 phage library were performed as described previously with minor modification to the original protocol. The corresponding tag protein (either GST or MBP) was first used during negative selections. Selections were run for 4 days. • Bait and tag proteins (10–15 μg in 100 μl PBS) were immobilised in 96‐well MaxiSorb plate (NUNC) o.n. at 4°C. • Escherichia coli OmniMax bacteria were grown in 2YT medium supplemented with tetracycline (100 μg/ml) at 37°C and 200 rpm. • Plates with immobilised bait/tag proteins were blocked with 0.5% BSA in PBS for 1 h at 4°C. • Phage library (10 μl/well) was prepared by diluting 10× with PBS and adding one‐fourth of the volume of PEG/NaCl. For phage precipitation, prepared library was incubated for 10 min on ice followed by centrifugation for 10 min at 10,000 × g at 4°C. […]
(§2) Based on the results from phage pool ELISAs, samples from selection Day 3 and 4 were selected for NGS, as described previously (Benz et al, [2022]). • Peptide coding regions were amplified and dual‐barcoded by PCR. […] From the columns, samples were eluted with 30 μl TE (10 mM Tris–HCl, 1 mM EDTA. pH 7.5) buffer and quantified with Quant‐iT PicoGreen dsDNA Assay Kit. • Samples were sequenced on MiSeq (MSC 2.5.0.5/RTA 1.18.54) with a 151 nt (Read1) setup using “Version3” chemistry. […]

MAP1LC3B [2] = molecular target: T2, MAP1LC3B (Homo sapiens, UniProt Q9GZQ8); test: FP displacement assay, MAP1LC3B; type: binding; settings: read-out: KD values ± SEM
T2 construct: GST (cleaved yes); made in house; host or cells: Escherichia coli BL21-Gold(DE3)
Procedure: (§3) FP experiments were performed as described previously (Kliche et al, [2021]). Shortly, in order to monitor the binding event, FITC‐labelled peptides were used (excitation 495 nm, emission: 535 nm) and the FP signal was recorded in mP on a SpectraMax iD5 Multi‐Mode Microplate Reader (Molecular Devices) by measuring the emitted light in two angels. The measurements were performed at room temperature and prepared in nonbinding black half area 96‐well microplates (Corning®; 50 μl/well). For measuring direct binding, that is saturation curves, a 1:1 dilution series of protein domain (25 μl/well) was generated in 50 mM sodium phosphate buffer pH 7.4 and the measurement performed with 5 nM FITC‐labelled peptide (25 μl/well). The buffer‐corrected values were subsequently plotted with PRISM and fitted to the quadratic equation (Gianni et al, [2005]).
(§4) The 1:1 dilution series in this experiment was performed with the unlabelled peptide in 50 mM sodium phosphate buffer pH 7.4, so that each well‐contained unlabelled peptide (25 μl) at a certain concentration and pre‐formed complex (25 μl). The KD values of this indirectly monitored binding event were calculated as described previously (Nikolovska‐Coleska et al, [2004]). All measurements were at least in technical triplicates as well as biological duplicates when indicated. An amplitude shift between repeat measurements in the displacement experiments was occasionally observed due to variations in the protein preparations. If that was the case, the “active” protein concentration was back‐calculated according to the quadratic equation from the saturation curves performed in parallel. By comparing the active protein concentrations in the complex between different protein preparations, the amplitude was normalised.

MAP1LC3A [3] = molecular target: T1, MAP1LC3A; test: FP displacement assay, MAP1LC3A; type: binding
MAP1LC3B [4] = molecular target: T2, MAP1LC3B; test: Phosphomimetic ProP-PD selection, MAP1LC3B; settings: phosphomimetic enrichment score of the wild-type/phosphomimetic (E) pair at the phosphosite, PM_HD2 phage selection; positive = phosphomimetic enhances binding; P-value in brackets not taken
Procedure: as §1, §2

KPNA4 ARM Major = molecular target: T3, KPNA4 ARM Major (Homo sapiens, UniProt O00629); test: FP displacement assay, KPNA4 ARM major pocket; type: binding; settings: for Kd: major pocket probe FITC-MYC 5 nM, 50 mM sodium phosphate pH 7.4, room temperature, at least three technical replicates, read-out: KD values ± SEM
T3 construct: 60-487; GST (cleaved yes); made in house; host or cells: Escherichia coli BL21-Gold(DE3)
T3 sequence (O00629 60-487): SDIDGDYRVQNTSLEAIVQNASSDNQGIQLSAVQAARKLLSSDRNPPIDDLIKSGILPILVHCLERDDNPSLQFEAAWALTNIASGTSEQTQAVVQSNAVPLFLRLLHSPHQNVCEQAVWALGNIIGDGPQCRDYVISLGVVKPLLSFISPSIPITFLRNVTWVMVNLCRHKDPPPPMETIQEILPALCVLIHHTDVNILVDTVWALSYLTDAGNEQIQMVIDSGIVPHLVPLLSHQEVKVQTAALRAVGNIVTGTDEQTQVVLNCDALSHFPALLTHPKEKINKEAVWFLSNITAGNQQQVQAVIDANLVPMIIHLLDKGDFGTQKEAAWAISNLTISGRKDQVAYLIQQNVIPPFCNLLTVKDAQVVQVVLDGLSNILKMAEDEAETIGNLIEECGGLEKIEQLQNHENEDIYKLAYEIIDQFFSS
Procedure: as §3, §4

KPNA4 ARM = test: Phosphomimetic ProP-PD selection, KPNA4 ARM; type: binding, human; settings: phosphomimetic enrichment score of the wild-type/phosphomimetic (E) pair at the phosphosite, PM_HD2 phage selection; same score in the major and minor pocket; P-value in brackets not taken
KPNA4 ARM minor = molecular target: T4, KPNA4 ARM minor (Homo sapiens, UniProt O00629); test: FP displacement assay, KPNA4 ARM minor pocket; type: binding; settings: for Kd: minor pocket probe FITC-NCOR2 5 nM, 50 mM sodium phosphate pH 7.4, room temperature, at least three technical replicates, read-out: KD values ± SEM
T4 construct: 60-487; GST (cleaved yes); made in house; host or cells: Escherichia coli BL21-Gold(DE3)
T4 sequence (O00629 60-487): as above
Procedure: as §3, §4

TSG101 UEV [5] = molecular target: T5, TSG101 UEV (Homo sapiens, UniProt Q99816); test: FP displacement assay, TSG101 UEV; type: binding; settings: for IC50: read-out: IC50 values of displacement curves, with SEM; for Kd: read-out: KD values ± SEM
T5 construct: TSG101_UEV__Q99816_1_145; made in house; host or cells: Escherichia coli BL21-Gold(DE3)
T5 sequence (Q99816 1-145): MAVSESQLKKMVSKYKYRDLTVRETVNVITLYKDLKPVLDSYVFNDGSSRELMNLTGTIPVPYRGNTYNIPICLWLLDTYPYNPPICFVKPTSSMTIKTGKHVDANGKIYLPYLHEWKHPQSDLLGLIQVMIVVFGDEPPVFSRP
Procedure: as §3, §4

TSG101 UEV [6] = molecular target: T5, TSG101 UEV; test: Phosphomimetic ProP-PD selection, TSG101 UEV; settings: phosphomimetic enrichment score of the wild-type/phosphomimetic (E) pair at the phosphosite, PM_HD2 phage selection; positive = phosphomimetic enhances binding; P-value in brackets not taken
Procedure: as §1, §2

[7] = Fig 4B, TSG101 UEV, technical triplicates
[8] = probe FITC-HIV2_Gag 5 nM, 50 mM sodium phosphate pH 7.4, room temperature, at least three technical replicates

PES (MAP1LC3A [1]): 14 (0.000000099) | Kd (MAP1LC3B [2]): 225 ± 17 µM | IC50 (MAP1LC3A [3]; Fig 4B, MAP1LC3A ATG8, FP displacement, technical triplicates, read-out: IC50 values of displacement curves, with SEM): 223 ± 12 µM | Kd (MAP1LC3A [3]; read-out: KD values ± SEM): 78 ± 3 µM | PES (MAP1LC3B [4]): 3 (0.012)
Molecule: CC(=O)N[C@@H](CCC(N)=O)C(=O)N[C@@H](CC(N)=O)C(=O)N[C@@H](CC(C)C)C(=O)N[C@@H](CO)C(=O)N[C@@H](CCCNC(=N)N)C(=O)N[C@@H](CCC(=O)O)C(=O)N[C@@H](Cc1c[nH]c2ccccc12)C(=O)N[C@@H](Cc1c[nH]cn1)C(=O)N[C@@H](CC(=O)O)C(=O)N[C@H](C(=O)N[C@@H](CCC(N)=O)C(=O)N[C@H](C(=O)N[C@@H](CO)C(=O)N[C@@H](CO)C(=O)N[C@@H](C)C(=O)N[C@@H](Cc1ccc(O)cc1)C(N)=O)C(C)C)C(C)C [TPD52L2_91–106 E] (Ac-QNLSREWHDVQVSSAY-NH2)

Kd (KPNA4 ARM Major): 5.3 ± 0.4 µM | Kd (KPNA4 ARM minor): 41 ± 2 µM
Molecule: CC(=O)N[C@@H](CC(=O)O)C(=O)N[C@H](C(=O)N[C@@H](CCC(=O)O)C(=O)N[C@@H](Cc1c[nH]cn1)C(=O)NCC(=O)NCC(=O)N[C@@H](CCCCN)C(=O)N[C@@H](CCCNC(=N)N)C(=O)N[C@@H](CCC(=O)O)C(=O)N[C@@H](CCCNC(=N)N)C(=O)N[C@@H](CC(C)C)C(=O)N[C@H](C(=O)N1CCC[C@H]1C(=O)N[C@H](C(=O)N[C@@H](CO)C(=O)N[C@@H](Cc1ccc(O)cc1)C(N)=O)C(C)C)[C@@H](C)O)C(C)C [SQSTM1_258–272 E] (Ac-DVEHGGKRERLTPVSY-NH2)
PES (KPNA4 ARM): −3 (0.0096)

IC50 (KPNA4 ARM Major; Fig 3E, KPNA4 ARM major, technical triplicates, read-out: IC50 values of displacement curves, with SEM): 7.1 ± 0.5 µM | Kd (KPNA4 ARM Major): 0.8 ± 0.03 µM | IC50 (KPNA4 ARM minor; Fig 3E, KPNA4 ARM minor, technical triplicates, read-out: IC50 values of displacement curves, with SEM): 290 ± 16 µM | Kd (KPNA4 ARM minor): 61 ± 2 µM
Molecule: CC(=O)N[C@@H](CC(N)=O)C(=O)N[C@@H](Cc1ccc(O)cc1)C(=O)N[C@@H](C)C(=O)N1CCC[C@H]1C(=O)N1CCC[C@H]1C(=O)N[C@H](C(=O)N[C@@H](CCCCN)C(=O)N[C@@H](CCCNC(=N)N)C(=O)N[C@@H](CCC(=O)O)C(=O)N[C@@H](CCCNC(=N)N)C(=O)N[C@@H](CCC(=O)O)C(=O)N[C@@H](CO)C(=O)N[C@@H](CO)C(=O)N[C@@H](CC(C)C)C(=O)N[C@H](C(=O)N[C@@H](CCC(N)=O)C(N)=O)[C@@H](C)O)C(C)C [RANBP3_114–129 E (p + 5)] (Ac-NYAPPVKRERESSLTQ-NH2)
PES (KPNA4 ARM): −7 (0.00012)

IC50 (TSG101 UEV [5]; [7]): 232 ± 13 µM | Kd (TSG101 UEV [5]; [8]): 115 ± 4 µM | PES (TSG101 UEV [6]): 6 (0.0013)
Molecule: CSCC[C@H](NC(=O)[C@@H]1CCCN1C(=O)[C@H](CCC(=O)O)NC(=O)[C@H](CC(C)C)NC(=O)[C@@H]1CCCN1C(=O)[C@H](C)NC(=O)[C@@H](NC(=O)[C@@H]1CCCN1C(=O)[C@H](CO)NC(=O)[C@H](CO)NC(=O)[C@H](C)NC(=O)CNC(=O)[C@H](CC(N)=O)NC(=O)[C@H](Cc1ccc(O)cc1)NC(C)=O)[C@@H](C)O)C(=O)N[C@@H](CO)C(=O)N1CCC[C@H]1C(N)=O [GJA1_269–283 E] (Ac-YNGASSPTAPLEPMSP-NH2)

IC50 (TSG101 UEV [5]; [7]): 37 ± 8 µM | Kd (TSG101 UEV [5]; [8]): 18 ± 2 µM | PES (TSG101 UEV [6]): −14 (0.0000002)
Molecule: CC(=O)N[C@@H](Cc1c[nH]cn1)C(=O)N[C@@H](CO)C(=O)NCC(=O)N[C@@H](CC(N)=O)C(=O)N[C@H](C(=O)N[C@@H](CCC(=O)O)C(=O)N1CCC[C@H]1C(=O)N[C@H](C(=O)N[C@@H](C)C(=O)N1CCC[C@H]1C(=O)N1CCC[C@H]1C(=O)N[C@@H](Cc1ccc(O)cc1)C(=O)N[C@@H](CC(C)C)C(=O)N[C@@H](CCC(N)=O)C(=O)N[C@@H](CCC(=O)O)C(=O)N[C@@H](CO)C(N)=O)[C@@H](C)O)C(C)C [PIP4P2_17–32 E] (Ac-HSGNVEPTAPPYLQES-NH2)

Kd (KPNA4 ARM Major): 0.75 ± 0.03 µM | Kd (KPNA4 ARM minor): 2.3 ± 0.3 µM
Molecule: CC(=O)NCC(=O)N[C@@H](C)C(=O)N[C@@H](CCC(=O)O)C(=O)N1CCC[C@H]1C(=O)N[C@@H](C)C(=O)N[C@@H](CC(C)C)C(=O)N[C@@H](CCCCN)C(=O)N[C@@H](CCCNC(=N)N)C(=O)N[C@@H](CO)C(=O)N[C@@H](Cc1c[nH]cn1)C(=O)N[C@@H](CO)C(=O)N[C@@H](CC(=O)O)C(=O)N[C@@H](CO)C(=O)N[C@@H](Cc1ccc(O)cc1)C(N)=O [CDC25A114–125 E] (Ac-GAEPALKRSHSDSY-NH2)
PES (KPNA4 ARM): 10 (0.000006)

IC50 values of displacement curves, with SEM (TSG101 UEV [5]; [7]): n.b. | KD values ± SEM (TSG101 UEV [5]; [8]): n.b. | PES (TSG101 UEV [6]): −15 (0.00000004)
Molecule: H3COC-QSIAREPS(pS/E)APSIPTPY-NH2 [PDCD6IP711–725 E, phosphomimetic (E) PDCD6IP 711-725 peptide]
